Laboratory results taken from ChEMBL document CHEMBL1128468, “Amino acid side chain descriptors for quantitative structure-activity relationship studies of peptide analogues” (J Med Chem, 1995).
Peptide text beside a SMILES is read from it.

target: T1, Substance-K receptor (Rattus norvegicus, UniProt P16610); test: Antagonism against Tachykinin receptor 2 in rat vas deferens(RVD); assay type: functional; settings: read-out: pA2 (converted)
T1 sequence (P16610 whole entry): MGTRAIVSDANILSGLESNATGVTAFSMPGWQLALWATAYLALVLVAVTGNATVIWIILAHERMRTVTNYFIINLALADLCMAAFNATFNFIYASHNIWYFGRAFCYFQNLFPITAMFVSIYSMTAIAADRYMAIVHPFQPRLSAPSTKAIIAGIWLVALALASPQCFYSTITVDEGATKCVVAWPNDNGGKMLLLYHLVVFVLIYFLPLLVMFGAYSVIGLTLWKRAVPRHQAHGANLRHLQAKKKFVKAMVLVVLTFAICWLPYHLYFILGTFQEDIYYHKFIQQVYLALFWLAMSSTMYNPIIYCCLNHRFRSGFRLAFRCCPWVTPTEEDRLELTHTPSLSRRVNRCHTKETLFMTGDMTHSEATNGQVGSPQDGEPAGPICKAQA

Kb [µM] | Compound
0.224 | CC(C)C[C@H](NC(=O)[C@@H](Cc1c[nH]c2ccccc12)NC(=O)[C@@H](NC(=O)[C@@H](Cc1c[nH]c2ccccc12)NC(=O)[C@H](Cc1ccc(O)cc1)NC(=O)[C@@H](N)CC(=O)O)C(C)C)C(=O)N[C@@H](CCCN=C(N)N)C(=O)O
0.295 | C[C@H](NC(=O)[C@@H](Cc1c[nH]c2ccccc12)NC(=O)[C@H](Cc1ccc(O)cc1)NC(=O)[C@@H](N)CC(=O)O)C(=O)N[C@H](Cc1c[nH]c2ccccc12)C(=O)N[C@H](Cc1c[nH]c2ccccc12)C(=O)N[C@@H](CCCCN)C(=O)O
0.288 | CC(C)[C@H](NC(=O)[C@@H](Cc1c[nH]c2ccccc12)NC(=O)[C@H](Cc1ccc(O)cc1)NC(=O)[C@@H](N)CC(=O)O)C(=O)N[C@H](Cc1c[nH]c2ccccc12)C(=O)N[C@H](Cc1c[nH]c2ccccc12)C(=O)N[C@@H](Cc1ccccc1)C(=O)O
2.4 | CC(C)[C@H](NC(=O)[C@@H](Cc1c[nH]c2ccccc12)NC(=O)[C@@H](Cc1c[nH]c2ccccc12)NC(=O)[C@@H](N)CC(=O)O)C(=O)N[C@H](Cc1c[nH]c2ccccc12)C(=O)N[C@H](Cc1c[nH]c2ccccc12)C(=O)N[C@@H](CCCN=C(N)N)C(=O)O

system: not listed separately; test: Biological activity for bradykinin potentiating pentapeptide as the logarithm of the relative activity index compared to the reference molecule (Val-Glu-Ser-Ser-Lys).; assay type: functional; settings: not given

Compound | Log RAI
H-VEWVK-OH | 1.71
H-VEAAP-OH | 0.18
H-VAAWK-OH | 0.23
H-GEAAK-OH | -0.52
H-VEAAK-OH | 0.51
H-EKWAP-OH | 1.3
H-FEAAK-OH | 0.3
H-PGFSP-OH | 0.9
H-AAWAA-OH | 0.75
H-VAWAK-OH | 1.45
NCC(=O)NCC(=O)NCC(=O)NCC(=O)NCC(=O)O | 0
H-VEFAK-OH | 1.57
H-RYLPT-OH | 0.4
H-VAAAK-OH | -0.1
H-VEWAK-OH | 2.73
H-VEASK-OH | 0.2

Compound | Log RAI
H-VESAK-OH | 0.28
H-VELAK-OH | 0.59
C[C@H](N)C(=O)N[C@@H](C)C(=O)N[C@@H](Cc1ccc(O)cc1)C(=O)N[C@@H](C)C(=O)N[C@@H](C)C(=O)O | 0.46
H-RKWAP-OH | 1.98
H-FSPFR-OH | 0.64
H-VEGGK-OH | -1
H-VAWAA-OH | 1.43
H-VEHAK-OH | 1.53
H-VWAAK-OH | 0.04
H-VKAAK-OH | 0.11
H-VKWAP-OH | 2.35
H-LEAAK-OH | 0.4
C[C@H](N)C(=O)N[C@@H](C)C(=O)N[C@@H](C)C(=O)N[C@@H](C)C(=O)N[C@@H](C)C(=O)O | -0.1
H-VESSK-OH | 0
H-VKWAA-OH | 1.71

target: Angiotensin-converting enzyme (Homo sapiens, UniProt P12821); test: Biological activity was measured against Angiotensin I converting enzyme; settings: read-out: Log 1/IC50 (converted)
Sequence (P12821 whole entry): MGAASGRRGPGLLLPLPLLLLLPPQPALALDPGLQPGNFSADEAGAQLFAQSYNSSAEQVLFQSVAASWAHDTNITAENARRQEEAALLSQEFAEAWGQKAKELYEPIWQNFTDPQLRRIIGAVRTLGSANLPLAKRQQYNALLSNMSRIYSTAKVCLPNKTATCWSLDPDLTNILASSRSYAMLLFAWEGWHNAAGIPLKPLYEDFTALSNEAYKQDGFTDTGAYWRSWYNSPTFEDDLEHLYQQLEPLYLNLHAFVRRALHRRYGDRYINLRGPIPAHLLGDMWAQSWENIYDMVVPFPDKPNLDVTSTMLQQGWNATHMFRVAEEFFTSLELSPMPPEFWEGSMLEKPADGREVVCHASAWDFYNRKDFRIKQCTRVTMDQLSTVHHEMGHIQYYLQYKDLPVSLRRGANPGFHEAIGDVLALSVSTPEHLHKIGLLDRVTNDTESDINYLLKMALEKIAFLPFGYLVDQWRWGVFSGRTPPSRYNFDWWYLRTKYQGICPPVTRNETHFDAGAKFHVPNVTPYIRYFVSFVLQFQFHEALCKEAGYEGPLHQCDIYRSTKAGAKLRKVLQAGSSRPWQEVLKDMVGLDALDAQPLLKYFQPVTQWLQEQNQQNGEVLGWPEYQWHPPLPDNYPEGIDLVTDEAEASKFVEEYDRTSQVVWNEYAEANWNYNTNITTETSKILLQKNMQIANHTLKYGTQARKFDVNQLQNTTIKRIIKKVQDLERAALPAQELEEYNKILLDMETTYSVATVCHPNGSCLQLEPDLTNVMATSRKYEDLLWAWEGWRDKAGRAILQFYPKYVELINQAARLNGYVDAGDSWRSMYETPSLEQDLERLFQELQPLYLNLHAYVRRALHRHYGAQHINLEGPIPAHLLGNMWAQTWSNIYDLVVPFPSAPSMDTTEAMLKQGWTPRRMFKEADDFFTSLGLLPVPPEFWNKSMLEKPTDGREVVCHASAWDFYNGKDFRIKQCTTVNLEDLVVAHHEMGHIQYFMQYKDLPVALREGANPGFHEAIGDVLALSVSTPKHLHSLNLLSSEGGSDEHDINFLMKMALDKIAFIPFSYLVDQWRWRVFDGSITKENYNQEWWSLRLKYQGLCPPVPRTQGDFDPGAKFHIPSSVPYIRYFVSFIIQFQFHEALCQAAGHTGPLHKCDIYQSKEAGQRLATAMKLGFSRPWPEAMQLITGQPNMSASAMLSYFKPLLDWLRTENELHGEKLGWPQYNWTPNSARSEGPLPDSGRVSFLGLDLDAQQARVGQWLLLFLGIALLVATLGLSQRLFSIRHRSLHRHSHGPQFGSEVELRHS

IC50 [µM] | Compound
7240 | NCC(=O)NCC(=O)O (H-Gly-Gly-OH)
15.8 | NC(N)=NCCC[C@H](N)C(=O)N[C@@H](Cc1c[nH]c2ccccc12)C(=O)O (H-Arg-Trp-OH)
209 | NCC(=O)N[C@@H](Cc1ccc(O)cc1)C(=O)O (H-Gly-Tyr-OH)
5750 | C[C@@H](O)[C@H](NC(=O)CN)C(=O)O (H-Gly-Thr-OH)
1200 | CC[C@H](C)[C@H](NC(=O)CN)C(=O)O (H-Gly-Ile-OH)
21.9 | CC(C)[C@H](N)C(=O)N[C@@H](Cc1ccc(O)cc1)C(=O)O (H-Val-Tyr-OH)

target: T2, Substance-K receptor (Oryctolagus cuniculus, UniProt P79218); test: Antagonist activity against Tachykinin receptor 2 was measured by Rabbit pulmonary artery(RPA) assay.; assay type: functional; settings: read-out: pA2 (converted)
T2 sequence (P79218 whole entry): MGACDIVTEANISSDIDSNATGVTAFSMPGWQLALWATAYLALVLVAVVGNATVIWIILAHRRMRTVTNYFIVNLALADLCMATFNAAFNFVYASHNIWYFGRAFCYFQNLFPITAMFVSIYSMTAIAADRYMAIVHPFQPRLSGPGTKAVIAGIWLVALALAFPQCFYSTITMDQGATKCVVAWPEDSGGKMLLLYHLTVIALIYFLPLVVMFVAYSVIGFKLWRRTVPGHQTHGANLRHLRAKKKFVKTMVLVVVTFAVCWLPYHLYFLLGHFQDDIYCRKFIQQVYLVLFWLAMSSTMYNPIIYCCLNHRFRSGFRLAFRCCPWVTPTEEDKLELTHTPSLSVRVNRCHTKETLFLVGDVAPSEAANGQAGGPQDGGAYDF

Kb [µM] | Compound
0.191 | CC(C)C[C@H](NC(=O)[C@@H](Cc1c[nH]c2ccccc12)NC(=O)[C@@H](NC(=O)[C@@H](Cc1c[nH]c2ccccc12)NC(=O)[C@H](Cc1ccc(O)cc1)NC(=O)[C@@H](N)CC(=O)O)C(C)C)C(=O)N[C@@H](CCCN=C(N)N)C(=O)O
1.35 | C[C@H](NC(=O)[C@@H](Cc1c[nH]c2ccccc12)NC(=O)[C@H](Cc1ccc(O)cc1)NC(=O)[C@@H](N)CC(=O)O)C(=O)N[C@H](Cc1c[nH]c2ccccc12)C(=O)N[C@H](Cc1c[nH]c2ccccc12)C(=O)N[C@@H](CCCCN)C(=O)O
1.26 | CC(C)[C@H](NC(=O)[C@@H](Cc1c[nH]c2ccccc12)NC(=O)[C@H](Cc1ccc(O)cc1)NC(=O)[C@@H](N)CC(=O)O)C(=O)N[C@H](Cc1c[nH]c2ccccc12)C(=O)N[C@H](Cc1c[nH]c2ccccc12)C(=O)N[C@@H](Cc1ccccc1)C(=O)O
100 | CC(C)[C@H](NC(=O)[C@@H](Cc1c[nH]c2ccccc12)NC(=O)[C@@H](Cc1c[nH]c2ccccc12)NC(=O)[C@@H](N)CC(=O)O)C(=O)N[C@H](Cc1c[nH]c2ccccc12)C(=O)N[C@H](Cc1c[nH]c2ccccc12)C(=O)N[C@@H](CCCN=C(N)N)C(=O)O

target: T3, Substance-K receptor (Mesocricetus auratus, UniProt P51144); test: Antagonist activity against Tachykinin receptor 2 was measured by Hamster isolated trachea(HT) assay.; assay type: functional, tissue-based; settings: read-out: pA2 (converted)
T3 sequence (P51144 whole entry): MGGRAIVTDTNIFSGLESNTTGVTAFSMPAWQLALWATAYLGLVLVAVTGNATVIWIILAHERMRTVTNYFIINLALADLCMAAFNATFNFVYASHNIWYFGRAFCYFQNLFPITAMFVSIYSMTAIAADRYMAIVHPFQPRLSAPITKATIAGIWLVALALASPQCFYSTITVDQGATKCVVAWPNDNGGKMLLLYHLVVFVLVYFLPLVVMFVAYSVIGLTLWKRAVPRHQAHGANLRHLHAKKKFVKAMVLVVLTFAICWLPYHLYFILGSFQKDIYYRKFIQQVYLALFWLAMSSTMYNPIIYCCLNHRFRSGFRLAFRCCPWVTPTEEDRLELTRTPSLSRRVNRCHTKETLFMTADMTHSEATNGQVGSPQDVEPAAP

Kb [µM] | Compound
0.646 | CC(C)C[C@H](NC(=O)[C@@H](Cc1c[nH]c2ccccc12)NC(=O)[C@@H](NC(=O)[C@@H](Cc1c[nH]c2ccccc12)NC(=O)[C@H](Cc1ccc(O)cc1)NC(=O)[C@@H](N)CC(=O)O)C(C)C)C(=O)N[C@@H](CCCN=C(N)N)C(=O)O
0.355 | C[C@H](NC(=O)[C@@H](Cc1c[nH]c2ccccc12)NC(=O)[C@H](Cc1ccc(O)cc1)NC(=O)[C@@H](N)CC(=O)O)C(=O)N[C@H](Cc1c[nH]c2ccccc12)C(=O)N[C@H](Cc1c[nH]c2ccccc12)C(=O)N[C@@H](CCCCN)C(=O)O
0.933 | CC(C)[C@H](NC(=O)[C@@H](Cc1c[nH]c2ccccc12)NC(=O)[C@H](Cc1ccc(O)cc1)NC(=O)[C@@H](N)CC(=O)O)C(=O)N[C@H](Cc1c[nH]c2ccccc12)C(=O)N[C@H](Cc1c[nH]c2ccccc12)C(=O)N[C@@H](Cc1ccccc1)C(=O)O
31.6 | CC(C)[C@H](NC(=O)[C@@H](Cc1c[nH]c2ccccc12)NC(=O)[C@@H](Cc1c[nH]c2ccccc12)NC(=O)[C@@H](N)CC(=O)O)C(=O)N[C@H](Cc1c[nH]c2ccccc12)C(=O)N[C@H](Cc1c[nH]c2ccccc12)C(=O)N[C@@H](CCCN=C(N)N)C(=O)O
